Results as given in the supplement of paper PMC4121296.

Legend:
Details in all cases: exposure: 5-72 hpf
[1] = system: Danio rerio embryo (fli1:egfp); assay: pericardial area at 72 hpf (image area units (not stated)); higher = larger pericardial area (edema)
Experimental: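 fli1:egfp zebrafish embryos exposed 5-72 hpf to chemical (0.05-50 µM, 0.1% DMSO); pericardial area at 72 hpf measured by semi-automated MetaXpress journal (increase indicates edema).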

[2] = system: Danio rerio embryo (fli1:egfp); assay: body length at 72 hpf (µm); higher = longer body (less growth inhibition)
Experimental: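 Transgenic fli1:egfp zebrafish embryos (one per well, 384-well plate) exposed statically from 5 to 72 hpf at 28 °C to chemical (0.05-50 µM, 0.1% DMSO); at 72 hpf anesthetized and imaged on ImageXpress; body length of live, hatched, correctly oriented embryos measured by automated MetaXpress journal. Dead/unhatched/misoriented embryos have no value.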

[3] = system: Danio rerio embryo (fli1:egfp); assay: intersegmental vessel area normalized to body length at 72 hpf (ISV area / body length (normalized units)); higher = more vessel area
Experimental: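 fli1:egfp zebrafish embryos exposed 5-72 hpf to chemical (0.05-50 µM, 0.1% DMSO); intersegmental vessel (ISV) eGFP area quantified by MetaXpress journal at 72 hpf and normalized to body length.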

[4] = system: Danio rerio embryo (fli1:egfp); assay: arterial (dorsal aorta) circulation score at 72 hpf (normalized DA-Max (arbitrary units)); higher = more circulation
Experimental: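 fli1:egfp zebrafish embryos exposed 5-72 hpf to chemical (0.05-50 µM, 0.1% DMSO); arterial circulation at 72 hpf quantified from stream acquisitions of the dorsal aorta by FFT-based analysis (DA-Max, normalized dorsal aorta signal); only concentrations passing survival/body-length criteria analyzed.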

[5] = system: Danio rerio embryo (fli1:egfp); assay: heart rate at 72 hpf (beats per minute); higher = faster heart rate
Experimental: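 fli1:egfp zebrafish embryos exposed 5-72 hpf to chemical (0.05-50 µM, 0.1% DMSO) in 384-well plates; heart rate at 72 hpf quantified from stream acquisitions by semi-automated MetaXpress journal (peak counting); only embryos in concentrations passing survival/body-length criteria analyzed.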

CN1CSC(=S)N(C)C1 [Dazomet]
0.05 µM
Details | arterial | body length at 72 hpf | heart rate at 72 hpf | intersegmental vessel area normalized | pericardial area at 72 hpf
[1] | – | – | – | – | 15600
[2] | – | 2860 | – | – | –
[3] | – | – | – | 72.7 | –
[4] | 14.4 | – | – | – | –
[5] | – | – | 168 | – | –

C=CCOC(=O)C(C)(C)OC(=O)c1cc(-n2c(=O)cc(C(F)(F)F)n(C)c2=O)ccc1Cl [Butafenacil]
Details | arterial, [4] | body length at 72 hpf, [2] | heart rate at 72 hpf, [5] | intersegmental vessel area normalized, [3] | pericardial area at 72 hpf, [1]
0.05 µM | 11.5 | 2960 | 182 | 72.8 | 15900
0.098 µM | 11.8 | 2990 | 180 | 61.6 | 14800
0.195 µM | 10.1 | 2960 | 191 | 70.6 | 16200
0.39 µM | 7.84 | 3000 | 185 | 68.9 | 15700
0.78 µM | 5.12 | 2970 | 172 | 55.9 | 18900
1.56 µM | 5.32 | 2970 | 168 | 61.2 | 18800
3.125 µM | 5.76 | 2980 | 175 | 69.3 | 18700
6.25 µM | 4.56 | 3010 | 184 | 72.8 | 28100
12.5 µM | 3.81 | 2860 | 163 | 81.2 | 36500

CC1(C)C(C(=O)OC(C#N)c2cccc(Oc3ccccc3)c2)C1(C)C (configuration not stated) [Fenpropathrin]
Details | arterial, [4] | body length at 72 hpf, [2] | heart rate at 72 hpf, [5] | intersegmental vessel area normalized, [3] | pericardial area at 72 hpf, [1]
0.05 µM | 18.5 | 2970 | 183 | 83.1 | 14600
0.098 µM | 13.8 | 2950 | 197 | 80.8 | 13400
0.195 µM | 11.2 | 2970 | 191 | 73.2 | 14500
0.39 µM | 10.7 | 2940 | 192 | 83.8 | 14400
0.78 µM | 12.6 | 2780 | 192 | 85.4 | 13200
1.56 µM | 20.9 | 2720 | 188 | 90.6 | 13400
3.125 µM | 21.2 | 2710 | 186 | 82.2 | 13600
6.25 µM | – | 2640 | – | – | –
12.5 µM | – | 2590 | – | – | –

CCc1nn(C)c(C(=O)NCc2ccc(C(C)(C)C)cc2)c1Cl [Tebufenpyrad]
Details | arterial, [4] | body length at 72 hpf, [2] | heart rate at 72 hpf, [5] | intersegmental vessel area normalized, [3] | pericardial area at 72 hpf, [1]
0.05 µM | 9.08 | 2980 | 155 | 75.7 | 13400
0.098 µM | 10.5 | 2960 | 166 | 75.9 | 13600
0.195 µM | 10.6 | 2960 | 160 | 78.8 | 13000
0.39 µM | 11.6 | 2990 | 166 | 76.5 | 14800
0.78 µM | 14.2 | 2950 | 174 | 77 | 16300

CCOC(=O)C(Cl)Cc1cc(-n2nc(C)n(C(F)F)c2=O)c(F)cc1Cl (configuration not stated) [Carfentrazone-ethyl]
Details | arterial, [4] | body length at 72 hpf, [2] | heart rate at 72 hpf, [5] | intersegmental vessel area normalized, [3] | pericardial area at 72 hpf, [1]
0.05 µM | 13.5 | 2950 | 186 | 53.3 | 13800
0.098 µM | 13.1 | 2970 | 172 | 55.6 | 15600
0.195 µM | 14.4 | 2980 | 187 | 64.4 | 15200
0.39 µM | 12.6 | 2990 | 190 | 61.5 | 17900
0.78 µM | 12.8 | 3030 | 194 | 65.4 | 17700
1.56 µM | 11.6 | 2950 | 186 | 56.7 | 18200
3.125 µM | 8.55 | 2940 | 190 | 64.7 | 19600
6.25 µM | 8.33 | 2970 | 184 | 67.9 | 25600

N#Cc1c(Cl)c(Cl)c(Cl)c(C#N)c1Cl [Chlorothalonil]
Details | arterial, [4] | body length at 72 hpf, [2] | heart rate at 72 hpf, [5] | intersegmental vessel area normalized, [3] | pericardial area at 72 hpf, [1]
0.05 µM | 11.6 | 2960 | 138 | 70.8 | 17600
0.098 µM | 10.8 | 2990 | 140 | 78.4 | 24100
0.195 µM | 10.3 | 2940 | 154 | 75.7 | 23900
0.39 µM | 12.3 | 2880 | 153 | 80.7 | 22000

C#CCN1C(=O)COc2cc(F)c(N3C(=O)C4=C(CCCC4)C3=O)cc21 [Flumioxazin]
Details | arterial, [4] | body length at 72 hpf, [2] | heart rate at 72 hpf, [5] | intersegmental vessel area normalized, [3] | pericardial area at 72 hpf, [1]
0.05 µM | 6.76 | 3020 | 175 | 73.7 | 17000
0.098 µM | 5.49 | 2970 | 169 | 74.8 | 17800
0.195 µM | 5.79 | 3020 | 160 | 82.8 | 18200
0.39 µM | 4.85 | 2920 | 155 | 68.9 | 19000
0.78 µM | 5.18 | 3030 | 156 | 68.8 | 23000
1.56 µM | 4.72 | 2960 | 164 | 74.8 | 18100
3.125 µM | 4.39 | 3000 | 182 | 74 | 18700
6.25 µM | 4.22 | 3000 | 169 | 69.6 | 19200
12.5 µM | 4.91 | 2990 | 182 | 75.9 | 19300
25 µM | 4.04 | 2920 | 166 | 86.4 | 17700
50 µM | 6.16 | 2920 | 166 | 79 | 21100
